Tests used:
Renilla luciferase [1] = target: T1, Renilla luciferase (Renilla reniformis, UniProt P27652); assay: Measurement of luminescence activity with Renilla luciferase; format: biochemical; design: His tag (from vector pCold-II; inferred from the nickel-chelate purification and the vector) (N); made in house; host or cells: Escherichia coli BL21; settings: Renilla luciferase 2.94 ng, 0.05 μg substrate, 30 mM Tris-HCl (pH 7.6)-10 mM EDTA; relative to coelenterazine
T1 sequence (P27652 1-311): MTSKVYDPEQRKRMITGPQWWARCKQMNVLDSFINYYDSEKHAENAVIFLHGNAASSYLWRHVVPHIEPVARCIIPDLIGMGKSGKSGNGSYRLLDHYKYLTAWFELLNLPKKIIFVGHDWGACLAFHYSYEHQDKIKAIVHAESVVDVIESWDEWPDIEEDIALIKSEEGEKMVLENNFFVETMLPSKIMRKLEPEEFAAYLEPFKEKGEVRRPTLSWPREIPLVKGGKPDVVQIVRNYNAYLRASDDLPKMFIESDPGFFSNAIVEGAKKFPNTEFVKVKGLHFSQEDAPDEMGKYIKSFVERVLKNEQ
Description: After Renilla luciferase (2.94 ng) or Renilla luciferase-547 (14.3 ng) was dispensed into a 96-well microplate (manufactured by Nunc) in an amount of 10 μL/well, 0.1 mL of 30 mM Tris-HCl (pH 7.6)-10 mM EDTA containing 0.05 μg of coelenterazine or ν-coelenterazine was injected into the wells thereby to initiate the luminescence reaction, and the luminescence intensity was measured using a luminescence plate reader Centro LB960 (manufactured by Berthold). The luminescence intensity was measured for 60 seconds 3 times in 0.1 second intervals, and the maximum luminescence intensity (Imax) and the mean (rlu) from luminescence integrated for 60 seconds were expressed in terms of relative activity (%) (TABLE 2).

Renilla luciferase [2] = target: T1, Renilla luciferase; assay: Measurement of emission spectrum with Renilla luciferase; format: biochemical; design: His tag (from vector pCold-II; inferred from the nickel-chelate purification and the vector) (N); made in house; host or cells: Escherichia coli BL21; settings: for Emission Maximum λmax / Emission spectrum half bandwidth: Renilla luciferase, 5 μg substrate, 50 mM Tris-HCl (pH 7.6)-10 mM EDTA, 22-25° C.; for shift of maximum emission wavelength (in words): summary of EXAMPLES, Renilla luciferase and Renilla luciferase-547
Description: (§1) The luminescence reaction was initiated by adding luciferase to 1 mL of 50 mM Tris-HCl (pH 7.6)-10 mM EDTA containing 5 μg (1 μg/μL) of substrate coelenterazine or ν-coelenterazine dissolved in ethanol. The protein amounts of luciferases used were Renilla luciferase: 1.5 μg and Renilla luciferase-547: 7.2 μg in the case of coelenterazine as substrate. On the other hand, the protein amounts in ν-coelenterazine as substrate were Renilla luciferase: 14.7 μg and Renilla luciferase-547: 35.8 μg. Luminescence spectra were measured in a quartz cell with a 10 mm optical path under the conditions of band width: 20 nm, sensitivity: medium, scan speed: 2000 nm/min and 22-25° C., using a fluorescence spectrophotometer FP-6500 (manufactured by JASCO) with the excitation light source turned off.

Renilla luciferase-547 = target: T2, Renilla luciferase-547 (Renilla reniformis, UniProt P27652, A123S/A143M/A55T/C124A/D154A/D162E/E155G/F262W/I163V/K136R/M185V/M253L/S130A/S287L); assay: Measurement of emission spectrum with Renilla luciferase-547; format: biochemical; settings: Renilla luciferase-547, 5 μg substrate, 50 mM Tris-HCl (pH 7.6)-10 mM EDTA, 22-25° C.
T2 construct: His6 with pCold-II leader (MNHKVHHHHHHMELG...) (N); made in house; host or cells: Escherichia coli BL21
T2 sequence (P27652 other isoform, or with tags, fused parts or gaps with the stated changes): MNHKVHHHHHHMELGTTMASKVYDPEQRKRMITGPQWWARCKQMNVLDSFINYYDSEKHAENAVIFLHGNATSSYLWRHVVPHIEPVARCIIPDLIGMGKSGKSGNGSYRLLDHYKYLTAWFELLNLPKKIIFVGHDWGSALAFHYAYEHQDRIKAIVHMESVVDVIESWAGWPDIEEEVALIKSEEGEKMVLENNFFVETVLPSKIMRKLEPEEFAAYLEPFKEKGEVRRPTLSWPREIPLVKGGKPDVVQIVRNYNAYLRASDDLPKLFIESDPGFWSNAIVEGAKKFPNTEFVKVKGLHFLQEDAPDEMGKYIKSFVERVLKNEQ
Description: as §1

Renilla luciferase [3] = target: T1, Renilla luciferase; settings: substrate for Renilla luciferase, cited from earlier work

SMILES: O=c1c(Cc2ccc(O)cc2)nc2c(Cc3ccccc3)[nH]c(-c3ccc(O)cc3)cn1-2 [Coelenterazine, coelenterazine, reference compound]
- Luminescence integrated for 60 seconds (Int.), relative activity (Renilla luciferase [1]): 100 (100) %
- Maximum Luminescence Intensity Imax, relative activity (Renilla luciferase [1]): 100 (100) %
- Emission Maximum λmax (Renilla luciferase [2]): 485.0 nm
- Emission spectrum half bandwidth (Renilla luciferase [2]): 95 nm
- Emission Maximum λmax (Renilla luciferase-547): 547.0 nm
- Emission spectrum half bandwidth (Renilla luciferase-547): 124 nm

SMILES: O=c1c(Cc2ccc(C(F)(F)F)cc2)nc2c(Cc3ccccc3)[nH]c3c4ccc(O)cc4ccc3n1-2 [cf3-v-Coelenterazine, cf3-ν-coelenterazine]
- Luminescence integrated for 60 seconds (Int.), relative activity (Renilla luciferase [1]): 12.3%
- Maximum Luminescence Intensity Imax, relative activity (Renilla luciferase [1]): 18.9%
- Emission Maximum λmax (Renilla luciferase [2]): 525.5 nm
- Emission spectrum half bandwidth (Renilla luciferase [2]): 121 nm
- shift of maximum emission wavelength (in words) (Renilla luciferase [2]): shifted toward a longer wavelength side even relative to ν-coelenterazine
- Emission Maximum λmax (Renilla luciferase-547): 599.0 nm
- Emission spectrum half bandwidth (Renilla luciferase-547): 132 nm

SMILES: O=c1c(Cc2ccc(O)cc2)nc2c(Cc3ccccc3)[nH]c3c4ccc(O)cc4ccc3n1-2 [v-Coelenterazine, ν-Coelenterazine]
- part of emission spectrum distribution reaching the near-infrared region (>700 nm) (Renilla luciferase [3]): ~5%
- shift of maximum emission wavelength toward the longer wavelength side (Renilla luciferase [3]; from 475 nm): about 40 nm
- maximum emission wavelength (Renilla luciferase [3]; green emission): 512 nm
- Luminescence integrated for 60 seconds (Int.), relative activity (Renilla luciferase [1]): 47.3%
- Maximum Luminescence Intensity Imax, relative activity (Renilla luciferase [1]): 71.8%
- Emission Maximum λmax (Renilla luciferase [2]): 519.0 nm
- Emission spectrum half bandwidth (Renilla luciferase [2]): 105 nm
- shift of maximum emission wavelength (in words) (Renilla luciferase [2]): shifted toward a longer wavelength side relative to coelenterazine
- Emission Maximum λmax (Renilla luciferase-547): 593.0 nm
- Emission spectrum half bandwidth (Renilla luciferase-547): 130 nm

Reference: US9346767B2, “Substituted pyrazines and a process for producing the same” (JNC CORPORATION, priority 2011, dated 2016)
